This is an account of results in patent US8785457B2 (Cellzome Limited, priority 2009, dated 2014).

SMILES strings stand for the structures. Like-named read-outs stand apart in the source and are kept apart here.

Test [1] addresses T1, DNA-dependent protein kinase (DNA-PK) (Homo sapiens, UniProt P78527).
T1 construct: endogenous in cells; host or cells: Jurkat, clone E6-1 (ATCC TIB-152) cell lysate
In words: kinobeads assay, DNA-PK. The format is binding. A digest of the protocol:
(§1)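 IC50 values came from dose-response curves after test compound (1:3 series) competed with an immobilized phenylmorpholin-chromen affinity matrix for kinases in Jurkat lysate at 5 mg/mL protein. Eluted captured DNA-PK and PI3Kδ were measured by specific-antibody dot blot and infrared imaging. Buffer was Tris pH 7.4, NP40, MgCl2, NaCl, vanadate, DTT, NaF.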

For a further test, the target named is T2, PI3K delta (PI3 Kd) (Homo sapiens, UniProt O00329).
T2 construct: endogenous in cells; host or cells: Jurkat, clone E6-1 (ATCC TIB-152) cell lysate
The test is described as follows: kinobeads assay, PI3K delta. The format is binding. An outline of the steps:
as §1

[2] abbreviates: Further Kinobeads Data, read-out: DNAPK.
Setting [3] is: Further Kinobeads Data, read-out: PI3Kd.
The mark [4] stands for this setting: kinobeads assay, Table 4, read-out: Inhibition values (IC50) DNA-PK.
Where [5] appears, read: kinobeads assay, Table 6, read-out: Inhibition values (IC50) DNAPK.
[6] abbreviates: kinobeads assay, Table 4, read-out: Inhibition values (IC50) PI3Kd.
[7] abbreviates: kinobeads assay, Table 6, read-out: Inhibition values (IC50) PI3Kd.

T1 sequence (P78527 whole entry): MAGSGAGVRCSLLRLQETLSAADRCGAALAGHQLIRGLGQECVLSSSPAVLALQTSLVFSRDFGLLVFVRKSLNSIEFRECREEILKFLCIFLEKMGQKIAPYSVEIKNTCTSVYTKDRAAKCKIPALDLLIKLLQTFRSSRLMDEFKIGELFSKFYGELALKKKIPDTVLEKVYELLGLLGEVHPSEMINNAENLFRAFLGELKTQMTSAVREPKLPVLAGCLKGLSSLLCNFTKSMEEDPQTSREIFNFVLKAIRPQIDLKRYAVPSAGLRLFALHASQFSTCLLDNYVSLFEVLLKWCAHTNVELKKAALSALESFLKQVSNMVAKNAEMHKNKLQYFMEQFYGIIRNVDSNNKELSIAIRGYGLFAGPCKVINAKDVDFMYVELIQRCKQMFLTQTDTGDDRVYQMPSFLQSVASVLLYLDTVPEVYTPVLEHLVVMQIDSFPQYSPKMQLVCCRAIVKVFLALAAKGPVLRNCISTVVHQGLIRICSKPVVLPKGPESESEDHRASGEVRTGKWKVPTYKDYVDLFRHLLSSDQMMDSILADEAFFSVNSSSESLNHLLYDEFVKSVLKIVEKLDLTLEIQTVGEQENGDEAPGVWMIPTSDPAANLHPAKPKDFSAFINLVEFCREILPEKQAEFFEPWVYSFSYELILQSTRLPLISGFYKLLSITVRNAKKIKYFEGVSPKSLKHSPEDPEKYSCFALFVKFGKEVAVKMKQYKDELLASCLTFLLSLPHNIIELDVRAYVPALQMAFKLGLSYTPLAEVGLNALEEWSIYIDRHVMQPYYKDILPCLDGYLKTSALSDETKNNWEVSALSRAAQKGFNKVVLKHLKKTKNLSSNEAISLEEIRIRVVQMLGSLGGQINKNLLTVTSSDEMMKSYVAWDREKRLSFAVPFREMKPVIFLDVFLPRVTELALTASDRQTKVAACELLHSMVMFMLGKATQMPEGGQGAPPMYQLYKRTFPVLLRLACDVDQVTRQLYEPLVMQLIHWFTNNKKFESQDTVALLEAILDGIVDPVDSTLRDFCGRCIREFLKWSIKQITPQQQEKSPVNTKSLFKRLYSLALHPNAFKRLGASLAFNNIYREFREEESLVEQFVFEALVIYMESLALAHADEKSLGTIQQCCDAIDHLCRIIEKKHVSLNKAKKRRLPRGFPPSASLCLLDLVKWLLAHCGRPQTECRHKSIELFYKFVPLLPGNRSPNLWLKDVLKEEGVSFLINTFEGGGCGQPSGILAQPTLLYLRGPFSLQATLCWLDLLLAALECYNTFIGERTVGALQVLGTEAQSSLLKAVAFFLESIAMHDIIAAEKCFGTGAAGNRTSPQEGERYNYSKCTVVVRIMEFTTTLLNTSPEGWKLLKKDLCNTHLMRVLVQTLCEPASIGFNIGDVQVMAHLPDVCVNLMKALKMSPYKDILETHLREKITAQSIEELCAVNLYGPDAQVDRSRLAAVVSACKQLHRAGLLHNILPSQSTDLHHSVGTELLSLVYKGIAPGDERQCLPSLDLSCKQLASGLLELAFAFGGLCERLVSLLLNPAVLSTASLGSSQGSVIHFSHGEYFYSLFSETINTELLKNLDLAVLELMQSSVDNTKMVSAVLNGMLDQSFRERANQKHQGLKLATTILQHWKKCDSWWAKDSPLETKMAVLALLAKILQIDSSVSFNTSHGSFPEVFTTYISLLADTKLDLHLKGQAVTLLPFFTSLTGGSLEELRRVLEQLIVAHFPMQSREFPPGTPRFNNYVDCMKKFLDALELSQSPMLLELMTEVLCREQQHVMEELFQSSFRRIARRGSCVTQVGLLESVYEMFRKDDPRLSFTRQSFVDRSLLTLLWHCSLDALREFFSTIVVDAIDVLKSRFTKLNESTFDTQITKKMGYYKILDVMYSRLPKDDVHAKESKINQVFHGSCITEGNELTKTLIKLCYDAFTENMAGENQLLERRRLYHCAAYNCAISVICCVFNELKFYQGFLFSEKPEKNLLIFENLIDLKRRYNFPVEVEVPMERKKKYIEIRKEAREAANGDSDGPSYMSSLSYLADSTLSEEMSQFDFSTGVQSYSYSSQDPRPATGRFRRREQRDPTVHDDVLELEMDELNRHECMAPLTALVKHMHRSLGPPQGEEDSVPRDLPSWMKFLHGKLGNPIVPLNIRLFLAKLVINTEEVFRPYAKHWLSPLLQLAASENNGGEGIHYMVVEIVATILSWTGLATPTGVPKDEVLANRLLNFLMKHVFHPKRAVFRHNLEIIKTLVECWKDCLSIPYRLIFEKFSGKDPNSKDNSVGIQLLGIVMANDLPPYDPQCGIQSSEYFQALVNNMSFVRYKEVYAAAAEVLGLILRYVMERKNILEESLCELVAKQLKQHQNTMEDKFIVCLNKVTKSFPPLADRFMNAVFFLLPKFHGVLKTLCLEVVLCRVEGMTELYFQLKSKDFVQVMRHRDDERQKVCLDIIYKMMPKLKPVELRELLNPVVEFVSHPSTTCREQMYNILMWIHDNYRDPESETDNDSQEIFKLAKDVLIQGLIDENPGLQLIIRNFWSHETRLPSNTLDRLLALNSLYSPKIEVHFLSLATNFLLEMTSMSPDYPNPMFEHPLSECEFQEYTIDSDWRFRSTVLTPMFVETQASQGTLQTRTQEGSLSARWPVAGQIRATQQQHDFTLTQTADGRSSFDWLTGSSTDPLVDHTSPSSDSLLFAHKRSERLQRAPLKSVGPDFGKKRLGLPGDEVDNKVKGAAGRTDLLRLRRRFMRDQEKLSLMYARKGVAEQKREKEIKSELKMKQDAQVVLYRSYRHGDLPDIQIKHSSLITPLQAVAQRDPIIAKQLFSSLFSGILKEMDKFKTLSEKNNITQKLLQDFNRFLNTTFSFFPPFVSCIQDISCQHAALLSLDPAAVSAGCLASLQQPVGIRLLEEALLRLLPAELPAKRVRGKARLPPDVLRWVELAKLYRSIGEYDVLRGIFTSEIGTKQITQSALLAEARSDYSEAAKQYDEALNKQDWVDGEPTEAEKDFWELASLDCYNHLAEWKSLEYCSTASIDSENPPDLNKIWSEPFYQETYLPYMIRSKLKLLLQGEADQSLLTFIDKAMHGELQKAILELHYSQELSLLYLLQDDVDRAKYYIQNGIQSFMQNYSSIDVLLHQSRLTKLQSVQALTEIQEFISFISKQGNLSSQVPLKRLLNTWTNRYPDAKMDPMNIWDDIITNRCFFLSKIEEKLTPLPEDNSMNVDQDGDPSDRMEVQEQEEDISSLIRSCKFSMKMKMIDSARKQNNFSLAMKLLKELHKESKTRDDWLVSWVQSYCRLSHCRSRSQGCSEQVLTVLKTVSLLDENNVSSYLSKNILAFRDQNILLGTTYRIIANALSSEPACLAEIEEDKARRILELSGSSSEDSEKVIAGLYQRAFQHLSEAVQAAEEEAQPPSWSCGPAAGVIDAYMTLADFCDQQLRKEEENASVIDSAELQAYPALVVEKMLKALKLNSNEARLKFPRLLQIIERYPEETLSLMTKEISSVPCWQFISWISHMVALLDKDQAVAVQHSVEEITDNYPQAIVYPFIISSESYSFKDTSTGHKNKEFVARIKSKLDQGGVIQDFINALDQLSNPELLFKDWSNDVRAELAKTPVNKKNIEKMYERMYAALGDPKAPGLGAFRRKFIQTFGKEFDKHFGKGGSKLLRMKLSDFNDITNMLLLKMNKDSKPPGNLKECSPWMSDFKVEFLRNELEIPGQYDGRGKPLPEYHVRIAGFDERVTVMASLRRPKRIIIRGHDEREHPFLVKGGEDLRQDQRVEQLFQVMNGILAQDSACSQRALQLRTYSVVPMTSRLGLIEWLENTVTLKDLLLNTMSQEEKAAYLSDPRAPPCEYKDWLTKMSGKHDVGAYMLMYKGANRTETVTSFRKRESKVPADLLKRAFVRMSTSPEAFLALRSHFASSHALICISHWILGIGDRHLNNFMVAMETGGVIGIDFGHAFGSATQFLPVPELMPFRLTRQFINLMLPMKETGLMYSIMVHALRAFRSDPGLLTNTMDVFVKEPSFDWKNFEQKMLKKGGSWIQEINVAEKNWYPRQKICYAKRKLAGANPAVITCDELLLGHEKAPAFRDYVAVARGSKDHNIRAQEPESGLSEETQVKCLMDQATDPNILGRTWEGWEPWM

As for `CCNC(=O)Nc1ccc(-c2nc3c(c(N4CCOC[C@@H]4C)n2)CN(C(=O)OC(C)(C)C)C3)c(F)c1` [Example 153, (S)-tert-butyl 2-(4-(3-ethylureido)-2-fluorophenyl)-4-(3-methylmorpholino)-5H-pyrrolo[3,4-d]pyrimidine-6-(7H)-carboxylate], the IC50 (in test [1] (setting [2]); on PI3K delta (PI3 Kd) (setting [3])) was more than 10 µM in each case.
`C[C@H]1COCCN1c1nc(-c2ccc(NC(=O)NC3CC3)cc2F)nc2c1CCNC2` [Example 163, (S)-1-cyclopropyl-3-(3-fluoro-4-(4-(3-methylmorpholino)-5,6,7,8-tetrahydropyrido[3,4-d]pyrimidin-2-yl)phenyl)urea]: the IC50 (in test [1] (setting [2]); on PI3K delta (PI3 Kd) (setting [3])) was more than 10 µM throughout.
Turning to `CCOC(=O)N1Cc2nc(-c3ccc(NC(=O)NCCO)cc3F)nc(N3CCOC[C@@H]3C)c2C1` [Example 167, (S)-Ethyl 2-(2-fluoro-4-(3-(2-hydroxyethyl)ureido)phenyl)-4-(3-methylmorpholino)-5H-pyrrolo[3,4-d]pyrimidine-6(7H)-carboxylate], the IC50 in test [1] (setting [2]) was more than 10 µM; on PI3K delta (PI3 Kd) (setting [3]), 1 to 10 µM.
Take `CCNC(=O)Nc1ccc(-c2nc3c(c(N4CCOC[C@@H]4C)n2)CCN(C)C3)cc1` [Example 35, (S)-1-ethyl-3-(4-(7-methyl-4-(3-methylmorpholino)-5,6,7,8-tetrahydropyrido[3,4-d]pyrimidin-2-yl)phenyl)urea]: the IC50 (in test [1] (setting [4]); in test [1] (setting [5]); on PI3K delta (PI3 Kd) (setting [6]); on PI3K delta (PI3 Kd) (setting [7])) was more than 10 µM each time.
In the case of `C[C@H]1COCCN1c1nc(-c2ccc(NC(=O)NC3CC3)cc2)nc2c1CN(CC(C)(C)C)C2` [Example 25, (S)-1-cyclopropyl-3-(4-(4-(3-methylmorpholino)-6-neopentyl-6,7-dihydro-5H-pyrrolo[3,4-d]pyrimidin-2-yl)phenyl)urea], the IC50 (in test [1] (setting [4]); in test [1] (setting [5]); at PI3K delta (PI3 Kd) (setting [6]); at PI3K delta (PI3 Kd) (setting [7])) was more than 10 µM throughout.
For `CCOC(=O)N1Cc2nc(-c3ccc(NC(=O)NCCF)cc3F)nc(N3CCOC[C@@H]3C)c2C1` [Example 168, (S)-ethyl 2-(2-fluoro-4-(3-(2-fluoroethyl)ureido)phenyl)-4-(3-methylmorpholino)-5H-pyrrolo[3,4-d]pyrimidine-6(7H)-carboxylate], the IC50 in test [1] (setting [2]) was more than 10 µM; at PI3K delta (PI3 Kd) (setting [3]), 1 to 10 µM.
Consider `CN1Cc2nc(-c3ccc(NC(=O)NC4CC4)cc3F)nc(N3CCOCC3)c2C1` [Example 159, 1-(Cyclopropyl)-3-(3-fluoro-4-(6-methyl-4-morpholino-6,7-dihydro-5H-pyrrolo[3,4-d]pyrimidin-2-yl)phenyl)urea], for which the IC50 (in test [1] (setting [2]); at PI3K delta (PI3 Kd) (setting [3])) was more than 10 µM in each case.
In the case of `CC(C)CN1CCc2c(nc(-c3ccc(NC(=O)NC4CC4)cc3)nc2N2CCOC[C@@H]2C)C1` [Example 42, (S)-1-cyclopropyl-3-(4-(7-isobutyl-4-(3-methylmorpholino)-5,6,7,8-tetrahydropyrido[3,4-d]pyrimidin-2-yl)phenyl)urea], the IC50 (in test [1] (setting [4]); in test [1] (setting [5]); on PI3K delta (PI3 Kd) (setting [6]); on PI3K delta (PI3 Kd) (setting [7])) was more than 10 µM each time.
Take `COC(=O)N1Cc2nc(-c3ccc(NC(=O)NC4CC4)cc3F)nc(N3CCOCC3)c2C1` [Example 173, Methyl 2-(4-(3-cyclopropylureido)-2-fluorophenyl)-4-morpholino-5H-pyrrolo[3,4-d]pyrimidine-6(7H)-carboxylate]: the IC50 (in test [1] (setting [2]); on PI3K delta (PI3 Kd) (setting [3])) was more than 10 µM each time.
`CNC(=O)Nc1ccc(-c2nc3c(c(N4CCOC[C@@H]4C)n2)CCNC3)cc1` [Example 16, (S)-1-methyl-3-(4-(4-(3-methylmorpholino)-5,6,7,8-tetrahydropyrido[3,4-d]pyrimidin-2-yl)phenyl)urea]: the IC50 (in test [1] (setting [4]); in test [1] (setting [5]); on PI3K delta (PI3 Kd) (setting [6]); on PI3K delta (PI3 Kd) (setting [7])) was more than 10 µM in each case.
`CC(C)C(=O)N1Cc2nc(-c3ccc(NC(=O)NC4CC4)cc3)nc(N3CCOC[C@@H]3C)c2C1` [Example 44, (S)-1-cyclopropyl-3-(4-(6-isobutyryl-4-(3-methylmorpholino)-6,7-dihydro-5H-pyrrolo[3,4-d]pyrimidin-2-yl)phenyl)urea]: the IC50 (in test [1] (setting [4]); in test [1] (setting [5]); on PI3K delta (PI3 Kd) (setting [6]); on PI3K delta (PI3 Kd) (setting [7])) was more than 10 µM each time.
For the compound `CCNC(=O)Nc1ccc(-c2nc3c(c(N4CCOC[C@@H]4C)n2)CN(CC)C3)cc1` [Example 39, (S)-1-ethyl-3-(4-(6-ethyl-4-(3-methylmorpholino)-6,7-dihydro-5H-pyrrolo[3,4-d]pyrimidin-2-yl)phenyl)urea], the IC50 (in test [1] (setting [4]); in test [1] (setting [5]); at PI3K delta (PI3 Kd) (setting [6]); on PI3K delta (PI3 Kd) (setting [7])) was more than 10 µM each time.
For `C[C@H]1COCCN1c1nc(-c2ccc(NC(=O)NC3CC3)cc2F)nc2c1CN(C)C2` [Example 147, (S)-1-cyclopropyl-3-(3-fluoro-4-(6-methyl-4-(3-methylmorpholino)-6,7-dihydro-5H-pyrrolo[3,4-d]pyrimidin-2-yl)phenyl)urea], the IC50 (in test [1] (setting [2]); on PI3K delta (PI3 Kd) (setting [3])) was more than 10 µM in each case.
For `C[C@@H]1COCCN1c1nc(-c2ccc(NC(=O)NC3CC3)cc2F)nc2c1CN(S(C)(=O)=O)C2` [Example 191, (R)-1-cyclopropyl-3-(3-fluoro-4-(4-(3-methylmorpholino)-6-(methylsulfonyl)-6,7-dihydro-5H-pyrrolo[3,4-d]pyrimidin-2-yl)phenyl)urea], the IC50 (in test [1] (setting [2]); on PI3K delta (PI3 Kd) (setting [3])) was more than 10 µM in each case.
Regarding `CC(C)N1Cc2nc(-c3ccc(NC(=O)NCCF)cc3F)nc(N3CCOCC3)c2C1` [Example 185, 1-(3-fluoro-4-(6-isopropyl-4-morpholino-6,7-dihyro-5H-pyrrolo[3,4-d]pyrimidin-2-yl)phenyl)-3-(2-fluoroethyl)urea], the IC50 in test [1] (setting [2]) is more than 10 µM; on PI3K delta (PI3 Kd) (setting [3]), 1 to 10 µM.
`C[C@@H]1COCCN1c1nc(-c2ccc(NC(=O)NC3CC3)cc2F)nc2c1CN(C=O)C2` [Example 190, (R)-1-cyclopropyl-3-(3-fluoro-4-(6-formyl-4-(3-methylmorpholino)-6,7-dihydro-5H-pyrrolo[3,4-d]pyrimidin-2-yl)phenyl)urea]: the IC50 (in test [1] (setting [2]); on PI3K delta (PI3 Kd) (setting [3])) was more than 10 µM each time.
Consider `COC(=O)N1Cc2nc(-c3ccc(NC(=O)NC4CC4)cc3F)nc(N3CCOC[C@@H]3C)c2C1` [Example 146, (S)-methyl 2-(4-(3-cyclopropylureido)-2-fluorophenyl)-4-(3-methylmorpholino)-5H-pyrrolo[3,4-d]pyrimidine-6(7H)-carboxylate], for which the IC50 (in test [1] (setting [2]); at PI3K delta (PI3 Kd) (setting [3])) was more than 10 µM in each case.
In the case of `CCNC(=O)Nc1ccc(-c2nc3c(c(N4CCOC[C@@H]4C)n2)CN(C=O)C3)cc1` [Example 8, (S)-1-ethyl-3-(4-(6-formyl-4-(3-methylmorpholino)-6,7-dihydro-5H-pyrrolo[3,4-d]pyrimidin-2-yl)phenyl)urea], the IC50 (in test [1] (setting [4]); in test [1] (setting [5]); at PI3K delta (PI3 Kd) (setting [6]); at PI3K delta (PI3 Kd) (setting [7])) was more than 10 µM in each case.
As to `CCNC(=O)Nc1ccc(-c2nc3c(c(N4CCOC[C@@H]4C)n2)CN(CC2CC2)C3)cc1` [Example 28, (S)-1-(4-(6-(cyclopropylmethyl)-4-(3-methylmorpholino)-6,7-dihydro-5H-pyrrolo[3,4-d]pyrimidin-2-yl)phenyl)-3-ethylurea], the IC50 (in test [1] (setting [4]); in test [1] (setting [5]); at PI3K delta (PI3 Kd) (setting [6]); at PI3K delta (PI3 Kd) (setting [7])) was more than 10 µM throughout.
Take `CCNC(=O)Nc1ccc(-c2nc3c(c(N4CCOC[C@@H]4C)n2)CN(C)C3)c(F)c1` [Example 160, (S)-1-ethyl-3-(3-fluoro-4-(6-methyl-4-(3-methylmorpholino)-6,7-dihydro-5H-pyrrolo[3,4-d]pyrimidin-2-yl)phenyl)urea]: the IC50 (in test [1] (setting [2]); at PI3K delta (PI3 Kd) (setting [3])) was more than 10 µM throughout.
`CCNC(=O)Nc1ccc(-c2nc3c(c(N4CCOC[C@@H]4C)n2)CN(C(=O)C2CC2)C3)cc1` [Example 23, (S)-1-(4-(6-(cyclopropanecarbonyl)-4-(3-methylmorpholino)-6,7-dihydro-5H-pyrrolo[3,4-d]pyrimidin-2-yl)phenyl)-3-ethylurea]: the IC50 in test [1] (setting [4]) is more than 10 µM; in test [1] (setting [5]), more than 10 µM; at PI3K delta (PI3 Kd) (setting [6]) it was 1 to 10 µM; at PI3K delta (PI3 Kd) (setting [7]), 1 to 10 µM.
`COC(=O)N1Cc2nc(-c3ccc(NC(=O)NCCO)cc3F)nc(N3CCOC[C@@H]3C)c2C1` [Example 181, (S)-methyl 2-(2-fluoro-4-(3-(2-hydroxyethyl)ureido)phenyl)-4-(3-methylmorpholino)-5H-pyrrolo[3,4-d]pyrimidine-6(7H)-carboxylate]: the values for the IC50 (in test [1] (setting [2]); on PI3K delta (PI3 Kd) (setting [3])) were 1 to 10 µM and more than 10 µM, respectively.
Regarding `CCNC(=O)Nc1ccc(-c2nc3c(c(N4CCOC[C@@H]4C)n2)CCN(CC2CC2)C3)cc1` [Example 37, (S)-1-(4-(7-(cyclopropylmethyl)-4-(3-methylmorpholino)-5,6,7,8-tetrahydropyrido[3,4-d]pyrimidin-2-yl)phenyl)-3-ethylurea], the IC50 (in test [1] (setting [4]); in test [1] (setting [5]); on PI3K delta (PI3 Kd) (setting [6]); at PI3K delta (PI3 Kd) (setting [7])) was more than 10 µM each time.
Take `CCNC(=O)Nc1ccc(-c2nc3c(c(N4CCOC[C@@H]4C)n2)CCN(C(=O)N(C)C)C3)c(F)c1` [Example 176, (S)-2-(4-(3-ethylureido)-2-fluorophenyl)-N,N-dimethyl-4-(3-methylmorpholino)-5,6-dihydropyrido[3,4-d]pyrimidine-7(8H)-carboxamide]: the IC50 (in test [1] (setting [2]); on PI3K delta (PI3 Kd) (setting [3])) was 1 to 10 µM in each case.
